Literature values in US20060182688A1, “Metronidazole-based tinted topical pharmaceutical compositions” (GALDERMA S.A., priority 2003, published 2006).

Tested on: rosacea

Cc1ncc([N+](=O)[O-])n1CCO [metronidazole, 1-(2-hydroxyethyl)-2-methyl-5-nitroimidazole]
effect on erythema (200 mg twice a day): ineffective | effect on the papules and pustules of rosacea (200 mg twice a day): had therapeutic effects | action on the clinical signs such as erythema, telangiectasia or redness (rosacea): no action | effect against the papules and pustules (rosacea): effective | effect on the inflammatory lesions (rosacea): effectively improves
